Measurements taken from BindingDB's records for doi:10.1021/jm00061a022 (Merck Research Laboratories, 1993).

Key:
Test in all cases: HIV-1 RT Assay
Conditions in all cases: pH 8.2
[1] = biological target: Gag-Pol polyprotein [588-1027]/[588-1147] (Human immunodeficiency virus 1, UniProt P04585)
[2] = biological target: Gag-Pol polyprotein [588-1027,K690N]/[588-1147,K690N] (Human immunodeficiency virus 1, UniProt P04585, K690N)
[3] = biological target: Gag-Pol polyprotein [588-1127,Y768C]/[588-1147,Y768C] (Human immunodeficiency virus 1, UniProt P04585, Y768C)

SMILES	IC50 [1] [nM]	IC50 [2] [nM]	IC50 [3] [nM]
CNC(=O)c1[nH]c2ccccc2c1Sc1ccccc1 [N-methyl-3-(phenylsulfanyl)-1H-indole-2-carboxamide]	746		
CC(C)=CCN1Cc2cc(Cl)cc3[nH]c(=S)n(c23)C[C@@H]1C [(11S)-6-chloro-11-methyl-10-(3-methylbut-2-en-1-yl)-1,3,10-triazatricyclo[6.4.1.0^{4,13}]trideca-4,6,8(13)-triene-2-thione]	311	7320	39500
[O-][S+](Cc1[nH]c2ccc(Cl)cc2c1Sc1ccccc1)c1ccccc1 (configuration not stated) [2-[(benzenesulfinyl)methyl]-5-chloro-3-(phenylsulfanyl)-1H-indole]	112		
NC(=O)c1[nH]c2ccc(Cl)cc2c1[S+]([O-])c1ccccc1 (configuration not stated) [3-(benzenesulfinyl)-5-chloro-1H-indole-2-carboxamide]	23	2760	1390
[O-][S+](Cc1[nH]c2ccccc2c1Sc1ccccc1)c1ccccc1 (configuration not stated) [2-[(benzenesulfinyl)methyl]-3-(phenylsulfanyl)-1H-indole]	63	2570	2990
NC(=O)c1[nH]c2ccc(Cl)cc2c1Sc1ccccc1 [5-chloro-3-(phenylsulfanyl)-1H-indole-2-carboxamide]	14	1460	1040
CN(C)C(=O)c1[nH]c2ccccc2c1Sc1ccccc1 [N,N-dimethyl-3-(phenylsulfanyl)-1H-indole-2-carboxamide]	87600		
[O-][S+](Cc1[nH]c2ccccc2c1[S+]([O-])c1ccccc1)c1ccccc1 (configuration not stated) [3-(benzenesulfinyl)-2-[(benzenesulfinyl)methyl]-1H-indole]	72800		
NC(=O)c1[nH]c2ccc(Cl)cc2c1S(=O)(=O)c1ccccc1 [5Cl3PhSO2-2IndolCONH2]	3	116	71
COC(=O)c1[nH]c2ccccc2c1Sc1ccccc1 [methyl 3-(phenylsulfanyl)-1H-indole-2-carboxylate]	2500		
COC(=O)c1[nH]c2ccc(Cl)cc2c1Sc1ccccc1 [methyl 5-chloro-3-(phenylsulfanyl)-1H-indole-2-carboxylate]	156		
CNC(=O)c1[nH]c2ccc(Cl)cc2c1Sc1ccccc1 [5-chloro-N-methyl-3-(phenylsulfanyl)-1H-indole-2-carboxamide]	22		
